Results on 27 compounds are retold here after patent US20240018140A1, “MODIFIED IMIDAZOPYRIDINES AS GLUCOSYLCERAMIDE SYNTHASE INHIBITORS” (Merck Sharp & Dohme LLC, priority 2020, published 2024).

As usually defined, the EC50 is the concentration at which the effect is half-maximal. Low values mean greater potency, high ones weaker potency.

Sequence of glucosylceramide synthase (GCS) (Q16739 whole entry): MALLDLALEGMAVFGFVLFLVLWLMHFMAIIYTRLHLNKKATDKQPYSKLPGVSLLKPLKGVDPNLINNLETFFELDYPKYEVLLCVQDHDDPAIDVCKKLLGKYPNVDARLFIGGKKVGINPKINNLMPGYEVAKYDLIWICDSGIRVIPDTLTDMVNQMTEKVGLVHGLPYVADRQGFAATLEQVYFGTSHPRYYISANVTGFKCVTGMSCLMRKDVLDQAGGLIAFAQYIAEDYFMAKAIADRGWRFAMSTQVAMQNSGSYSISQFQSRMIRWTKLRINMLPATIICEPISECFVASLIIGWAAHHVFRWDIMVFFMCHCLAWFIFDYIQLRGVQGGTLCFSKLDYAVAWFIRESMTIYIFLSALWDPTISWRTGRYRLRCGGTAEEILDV

This experiment has as its target glucosylceramide synthase (GCS) (Homo sapiens (Human), UniProt Q16739). Briefly: UDP-Glo glucosylceramide synthase biochemical assay. The conditions noted are these: endogenous GCS in Golgi preparations from human A375 malignant melanoma skin cells; C6 ceramide and UDP-glucose substrates; 20 h incubation; UDP detected by luminescence. An excerpt:
UDP-Glo™ Glucosylceramide Synthase Biochemical Assay
A UDP-Glo™ glucosylceramide synthase biochemical assay was utilized to evaluate the effect of test compounds on the activity of endogenous levels of GCS enzyme contained within Golgi preparations isolated from human A375 malignant melanoma skin cells. The UDP-Glo™ glucosylceramide synthase assay uses UDP-Glucose as a nucleotide-glycosyl donor and ceramide as substrate acceptor molecules. In the reaction, glucosylceramide synthase (GCS) transfers glucose from UDP-Glucose to ceramide. Glucosylceramide and UDP are released as products.
Using Promega's UDP-Glo™ Glycosyltransferase assay kit (Promega Corporation, Madison, WI, USA (Promega)), GCS activity was indirectly measured by detecting the amount of UDP produced. An aliquot of GCS enzyme (1.5 μg crude golgi preparation, total protein) and titrated test compound were aliquoted to each well and incubated for 30 minutes at room temperature. […] An equivalent volume of substrate mixture was then added to each well. Following a 20 h incubation at room temperature to allow for GCS turnover of substrate, an equal volume of UDP detection reagent (Promega) was added to each well and incubated for an additional 75 minutes at room temperature to simultaneously convert the accumulated UDP product into ATP and generate light in a luciferase reaction. The generated light was detected using a luminometer. […] luminescence values (RLUs) were normalized to mean “min” and “max” effects, as determined on each plate. “Min” was defined as the mean of the values of the wells treated with vehicle (DMSO) and which represent 0% inhibition; “max” was defined as the mean of the values of the wells treated with a reference inhibitor and which represent the 100% effect. Values for % Emax and EC50 were determined by best-fitting the normalized data to a curve in Activity Base along a four-parameter logistic nonlinear regression (4PL) model (based on the Levenberg-Marquardt algorithm and defined by the equation below): […]
where: n is 4PMin (bottom of the curve); m is 4PMax (top of the curve); i is IP (inflection point of curve); and p is slope. See Levenberg, K., “A Method for the Solution of Certain Problems in Least Squares”, Quart. Appl. Math. 2, (1944), pp 164-168 and Marquardt, D., “An Algorithm for Least Squares Estimation on Nonlinear Parameters”, SIAM J. Appl. Math. 11, (1963) pp 431-441.
Turning to `O=C(c1cn2cccc(-c3ccccc3OCC(F)(F)F)c2n1)N1CCn2ccnc2C1` [Compound 55, (5,6-dihydroimidazo[1,2-a]pyrazin-7(8H)-yl)(8-(2-(2,2,2-trifluoroethoxy)phenyl)imidazo[1,2-a]pyridin-2-yl)methanone], the midpoint of the response, the EC50, lay at 2.9 nM.
Then `CC(CO)(NC(=O)c1cn2cccc(-c3ccccc3OCC(F)(F)F)c2n1)C(F)(F)F` (single isomer, unassigned) [Compound 9, (R or S)-N-(1,1,1-trifluoro-3-hydroxy-2-methylpropan-2-yl)-8-(2-(2,2,2-trifluoroethoxy)phenyl)imidazo[1,2-a]pyridine-2-carboxamide], with 2.3 nM; and `CC(C)(CO)NC(=O)c1cn2cccc(-c3ccccc3OCC(F)(F)F)c2n1` [Compound 1, N-(1-hydroxy-2-methylpropan-2-yl)-8-(2-(2,2,2-trifluoroethoxy)phenyl)imidazo[1,2-a]pyridine-2-carboxamide], with 9.8 nM.
Take `CC1(C)OCC1NC(=O)c1cn2cccc(-c3ccccc3OCC(F)(F)F)c2n1` (stereo not drawn) [Compound 53, N-(2,2-dimethyloxetan-3-yl)-8-(2-(2,2,2-trifluoroethoxy)phenyl)imidazo[1,2-a]pyridine-2-carboxamide]: the EC50 was 30 nM.
To `CC(O)c1cn2cc(Cl)cc(-c3ccccc3OCC(F)(F)F)c2n1` (stereo not drawn) [Compound 64, 1-[6-chloro-8-[2-(2,2,2-trifluoroethoxy)phenyl]imidazo[1,2-a]pyridin-2-yl]ethanol] belongs 13 nM; to `N#C[C@@]1(NC(=O)c2cn3cccc(-c4ccccc4OCC(F)(F)F)c3n2)CCOC1` [Compound 34, (S)-N-(3-cyanotetrahydrofuran-3-yl)-8-(2-(2,2,2-trifluoroethoxy)phenyl)imidazo[1,2-a]pyridine-2-carboxamide], 5.9 nM; to `CC(C)(O)C1(C)CN=C(c2cn3cc(Cl)cc(-c4ccccc4OCC(F)(F)F)c3n2)O1` (stereo not drawn) [Compound 77, 2-[2-[6-chloro-8-[2-(2,2,2-trifluoroethoxy)phenyl]imidazo[1,2-a]pyridin-2-yl]-5-methyl-4H-oxazol-5-yl]propan-2-ol], 3.7 nM.
To `O=C(N[C@H]1CCCOC1)c1cn2cc(C(F)(F)F)cc(-c3ccccc3OCC(F)(F)F)c2n1` [Compound 42, (S)-N-(tetrahydro-2H-pyran-3-yl)-8-(2-(2,2,2-trifluoroethoxy)phenyl)-6-(trifluoromethyl)imidazo[1,2-a]pyridine-2-carboxamide] belongs 2.5 nM; to `O=C(N[C@H]1CC[C@H](O)CC1)c1nc2c(-c3ccccc3OCC(F)(F)F)cccn2c1F` [Compound 32, 3-fluoro-N-(trans-4-hydroxycyclohexyl)-8-(2-(2,2,2-trifluoroethoxy)phenyl)imidazo[1,2-a]pyridine-2-carboxamide], 47 nM; to `CC(O)c1cn2cc(C(F)(F)F)cc(-c3ccccc3OCC(F)(F)F)c2n1` (single isomer, unassigned) [Compound 63, (R or S) 1-(8-(2-(2,2,2-trifluoroethoxy)phenyl)-6-(trifluoromethyl)imidazo[1,2-a]pyridin-2-yl)ethan-1-ol], 5.7 nM.
For the compound `O=C(N[C@@H]1CCC[C@H](CO)C1)c1cn2cccc(-c3ccccc3OCC(F)(F)F)c2n1` (relative stereo) [Compound 31, N-(cis-3-(hydroxymethyl)cyclohexyl)-8-(2-(2,2,2-trifluoroethoxy)phenyl)imidazo[1,2-a]pyridine-2-carboxamide], the response was half-maximal at 0.23 nM (EC50).
`O=C(NC1(CO)CCCC1)c1cn2cccc(-c3ccccc3OCC(F)(F)F)c2n1` [Compound 21, N-(1-(hydroxymethyl)cyclopentyl)-8-(2-(2,2,2-trifluoroethoxy)phenyl)imidazo[1,2-a]pyridine-2-carboxamide] had an EC50 of 11 nM.
`COc1cc(-c2ccccc2OCC(F)(F)F)c2nc(C(=O)NC(C)(C)C(F)(F)F)cn2c1` [Compound 43, 6-methoxy-N-(1,1,1-trifluoro-2-methylpropan-2-yl)-8-(2-(2,2,2-trifluoroethoxy)phenyl)imidazo[1,2-a]pyridine-2-carboxamide] returned an EC50 of 2.1 nM.
Then `O=C(N[C@@H]1CNCC[C@H]1F)c1cn2cccc(-c3ccccc3OCC(F)(F)F)c2n1` (relative stereo) [Compound 16, N-(trans-4-fluoropiperidin-3-yl)-8-(2-(2,2,2-trifluoroethoxy)phenyl)imidazo[1,2-a]pyridine-2-carboxamide], with 0.83 nM.
Then `COc1ccc(Cl)cc1-c1cccn2cc(C(=O)NC34CCC(O)(CC3)C4)nc12` [Compound 30, 8-(5-chloro-2-methoxyphenyl)-N-(4-hydroxybicyclo[2.2.1]heptan-1-yl)imidazo[1,2-a]pyridine-2-carboxamide], with 5.6 nM; and `C[C@@H](NC(=O)c1cn2cccc(-c3ccccc3OCC(F)(F)F)c2n1)C(F)(F)F` [Compound 4, (R)-8-(2-(2,2,2-trifluoroethoxy)phenyl)-N-(1,1,1-trifluoropropan-2-yl)imidazo[1,2-a]pyridine-2-carboxamide], with 26 nM.
Then `O=C(Nc1cnccc1F)c1cn2cccc(-c3ccccc3OCC(F)(F)F)c2n1` [Compound 57, N-(4-fluoropyridin-3-yl)-8-(2-(2,2,2-trifluoroethoxy)phenyl)imidazo[1,2-a]pyridine-2-carboxamide], with 0.45 nM.
On to `O=C(Nc1cccnc1)c1cn2cc(C(F)(F)F)cc(-c3ccccc3OCC(F)(F)F)c2n1` [Compound 15, N-(pyridin-3-yl)-8-(2-(2,2,2-trifluoroethoxy)phenyl)-6-(trifluoromethyl)imidazo[1,2-a]pyridine-2-carboxamide], for which the EC50 is 0.029 nM.
With `Cc1ccncc1NC(=O)c1cn2cccc(-c3ccccc3OCC(F)(F)F)c2n1` [Compound 56, N-(4-methylpyridin-3-yl)-8-(2-(2,2,2-trifluoroethoxy)phenyl)imidazo[1,2-a]pyridine-2-carboxamide], a half-maximal effect (EC50) was put at 0.15 nM.
Then `NCc1cn2cccc(-c3ccccc3OCC(F)(F)F)c2n1` [Compound 80, (8-(2-(2,2,2-trifluoroethoxy)phenyl)imidazo[1,2-a]pyridin-2-yl)methanamine], with 330 nM; and `NC(CNC(=O)c1cn2cc(Cl)cc(-c3ccccc3OCC(F)(F)F)c2n1)C(F)(F)F` (stereo not drawn) [Compound 23, N-(2-amino-3,3,3-trifluoropropyl)-6-chloro-8-(2-(2,2,2-trifluoroethoxy)phenyl)imidazo[1,2-a]pyridine-2-carboxamide], with 10 nM.
To `CC(CO)(NC(=O)c1cn2cccc(-c3ccccc3OCC(F)(F)F)c2n1)C(F)(F)F` (single isomer, unassigned) [Compound 10, (R or S)-N-(1,1,1-trifluoro-3-hydroxy-2-methylpropan-2-yl)-8-(2-(2,2,2-trifluoroethoxy)phenyl)imidazo[1,2-a]pyridine-2-carboxamide] belongs 7.2 nM; to `CC(C)(C)NC(=O)c1cn2cc(F)cc(-c3ccccc3OCC(F)(F)F)c2n1` [Compound 13, N-(tert-butyl)-6-fluoro-8-(2-(2,2,2-trifluoroethoxy)phenyl)imidazo[1,2-a]pyridine-2-carboxamide], 5.8 nM; to `O=C(Nc1cccnc1)c1cn2cc(F)cc(-c3ccccc3OCC(F)(F)F)c2n1` [Compound 61, 6-fluoro-N-(pyridin-3-yl)-8-(2-(2,2,2-trifluoroethoxy)phenyl)imidazo[1,2-a]pyridine-2-carboxamide], 0.083 nM.
To `O=C(c1cn2cccc(-c3ccccc3OCC(F)(F)F)c2n1)N1Cc2cccnc2C1` [Compound 12, (5,7-dihydro-6H-pyrrolo[3,4-b]pyridin-6-yl)(8-(2-(2,2,2-trifluoroethoxy)phenyl)imidazo[1,2-a]pyridin-2-yl)methanone] belongs 36 nM; to `O=C(N[C@H]1CC[C@H](O)C1)c1cn2cccc(-c3ccccc3OCC(F)(F)F)c2n1` (relative stereo) [Compound 19, N-(trans-3-hydroxycyclopentyl)-8-(2-(2,2,2-trifluoroethoxy)phenyl)imidazo[1,2-a]pyridine-2-carboxamide], 23 nM; to `OCC1COC(c2cn3cc(Cl)cc(-c4ccccc4OCC(F)(F)F)c3n2)=N1` (stereo not drawn) [Compound 72, [2-[6-chloro-8-[2-(2,2,2-trifluoroethoxy)phenyl]imidazo[1,2-a]pyridin-2-yl]-4,5-dihydrooxazol-4-yl]methanol], 7.9 nM.
